We go through seven compounds from patent US7652050B2, “Methods for increasing the survival of aquatic animals infected with an aquatic virus” (Laboratorio de Siagnóstico GAM S.A, priority 2001, dated 2010).

The nature of one data set: in vitro. The settings on record: Chinook salmon.
Data set [1] relates to IPNV. As to the kind of experiment: Modified viral plaque inhibition assay with pre-incubation of virus (virus cell entry). In kind it is cell-based, infectious pancreatic necrosis virus (IPNV). The settings on record: for EC50: Infectious pancreatic necrosis virus. As for the experimental part:
Compounds derived from isoxazol are assayed for their ability to inhibit viral entry into the cell. To determine if acivicin blocks the entry of IPNV, a modified viral plaque inhibition assay was conducted. […] Control viral samples were not pre-incubated with acivicin. […] Overnight incubation of the virus in acivicin increased the ability of the isoxazol compound to inhibit viral plaques by 38 percent.

Another data set concerns IPNV particles. Type of data set: cell-based, infectious pancreatic necrosis virus (IPNV). The settings on record: acivicin 25 and 70 μg/ml, 24 and 48 h.p.i.
A further data set relates to IPNV genomic RNA. Type of data set: cell-based, infectious pancreatic necrosis virus (IPNV).
Data set [2] relates to IPNV. The data set is described as follows: Survival of naturally infected rainbow trout fry treated with acivicin. In kind it is in vivo, rainbow trout (Onchorhynchus mykiss). The procedure: FIG. 4 is a graph showing the effect of acivicin treatment on the survival of rainbow trout fry naturally infection with IPNV. The fish were followed for 30 days starting at day one of the acivicin treatments, to detect and document deaths. The data are presented in terms of percent survival: • ●---●: untreated naturally infected fish, positive control. • σ--σ: naturally infected fish treated with 9 μg/ml of Acivicin.
Acivicin was tested in vivo on thirty rainbow trout (Onchorhynchus mykiss). […] The fish were followed for 30 days following the first day of the acivicin treatments. Deaths were documented and presented in terms of percent survival. Results from methods assessing the effect of acivicin treatment on the survival of the trout fry naturally infected are shown in the graph at FIG. 4. Thirty days after the acivicin administration began, 90% of the trout fry had survived , while only 30% of the untreated control group had survived the same 30 day period. […] By contrast, in the untreated fish group, deaths continued during the first 25 days of the observation period.

For data set [3], the system named is IPNV. As to the kind of experiment: Survival of IPNV-infected Atlantic salmon fry treated with acivicin by immersion. In kind it is in vivo.
Data set [4] is described as follows: Uninfected Atlantic salmon fry treated with acivicin (toxicity control). Type of data set: in vivo. The settings on record: uninfected fish treated with 14 μg/ml acivicin. The procedure:
Starting nine days post-infection (day 9), surviving fish are divided into four groups of forty fish each and treated with 0, 7.0, 10.8, or 14.0 μg/ml of acivicin by immersion in a 2 hour daily bath containing […]. One group corresponded to untreated fish, and the other three groups corresponded to fish groups treated with different concentrations of acivicin. As a negative control, there were two groups of 40 healthy fish in each; one group corresponded to an uninfected fry administered 14 μg/ml of acivicin while the other group was not infected or administered acivicin. Daily treatment in acivicin continued through day 21 post-infection (day 21). The fish were followed for 36 days post-infection to detect and document mortality.

The next data set concerns reovirus. The following applies: Balb/c cells; Keast et al. (1992); cited from earlier work.
A short description of another data set: Stability in solution. In kind it is physicochemical.
Data set [5] deals with IPNV. The following applies: at 100 to 300 μg/ml; cited from earlier work.
For data set [6], the system named is IPNV strain VR-299. The settings on record: cited from earlier work.
In data set [7] the test system is IPNV. The settings on record: cited from earlier work.
Data set [8] concerns IPNV strain VR-299. The data set is described as follows: Virus plaque inhibition assay. Type of data set: cell-based. The settings on record: Infectious pancreatic necrosis virus, CHSE-214, 72 h, read-out: EC50, effective antiviral concentration required to inhibit IPNV plaque formation by 50%.
The subject of data set [9] is IPNV. The data set is described as follows: Survival of IPNV-infected Atlantic salmon fry treated with neomycin by immersion. The following applies: neomycin 10, 40 and 80 ppm, 1 hour daily bath through day 23.
Where [10] appears, read: acivicin 25 and 70 μg/ml, 24 and 48 h.p.i.

In brackets after ≈: the same amount, converted by molar mass. Entries after “also recorded” stand apart in the source; their conditions may differ. Where two headings read alike, the source gives them in different places.

`Nc1ncnc2c1ncn2CC(O)C(=O)O` (centres unmarked) [AHPA, 3-adenine-9-yl-2-hydroxypropanoic acid]: in the data set “in vitro”, the CC50 at 3 days was 75 µg/mL (≈ 336 µM).
In the case of `N[C@H](C(=O)O)[C@@H]1CC(Cl)=NO1` [Acivicin, L (alpha S, 5S)-alpha-amino-3-chloro-4.5-dihydro-5-isoxazolacetic acid], in the data set on IPNV [1] (2 hours pre-incubation), the “EC50, virus samples pre-incubated 2 hours, versus not pre-incubated” value was “not significantly different”. In addition, the EC50 is 4 µg/mL (≈ 22.4 µM) in the data set on IPNV [1] (no pre-incubation, read-out: EC50, virus samples without pre-incubation) and 2.5 µg/mL with IPNV [1] (pre-incubation with 1 to 6 μg/ml acivicin overnight, read-out: EC50, virus samples pre-incubated overnight with acivicin). The “Effect on IPNV particle formation” value with IPNV particles is listed as “inhibits the formation of IPNV viral particles”. For the same compound, in the data set with IPNV genomic RNA (setting [10]), the “Effect on IPNV genomic RNA synthesis” value was “did not inhibit”. For the same compound, the CC50 in the data set “in vitro” is over 100 µg/mL. In addition, the “Effect on IPNV polypeptide synthesis” value in the data set with IPNV polypeptides (setting [10]) is reported as “did not inhibit”. For the same compound, the “Day of treatment by which all deaths occurred” value with IPNV [2] (9 μg/ml acivicin, 15 day protocol, untreated deaths continued 25 days) is at most 12 days. Also, in the data set with IPNV [2] (fry 1.0±0.4 g, 9 μg/ml acivicin, daily bath of two hours, 15 days, untreated control 30%), the “Survival thirty days after administration began” value was 90%. Moreover, the Survival in the data set with IPNV [2] (fry of approximately 0.8 g, treated 12 days with 9 μg/ml acivicin) turned out to be 98%; in the data set on IPNV [3] (infected fish, 10.5 μg/ml acivicin) it was 92%; in the data set on IPNV [3] (infected fish, 14 μg/ml acivicin), 89%. In addition, the “Deaths after acivicin treatments were terminated” value in the data set with IPNV [3] (days 21-36, all three treated groups, untreated infected deaths reached 54 percent) is reported as “no deaths observed”. In the data set with IPNV [3] (each of the treated groups, treatment began day 9 post-infection), the “Day post-treatment by which deaths stopped completely” value is given as at most 10 day post-treatment. For the same compound, the “Mortality rate (accumulated deaths)” value in the data set with IPNV [3] (infected fish, 7.0 μg/ml acivicin, 2 hour daily bath from day 9 to 21 post-infection, untreated infected 30%) came to 30%. Further, the Accumulated deaths in the data set on IPNV [3] (infected fish, 10.5 μg/ml acivicin, 2 hour daily bath from day 9 to 21 post-infection) was found to be 8%. Moreover, the Mortality in the data set with IPNV [3] (infected fish, 14 μg/ml acivicin, 2 hour daily bath from day 9 to 21 post-infection) came out at 11%. The Toxicity in fish entry in data set [4] is “not toxic in fish”. Also, the “Concentration inhibiting reovirus replication” value in the data set with reovirus is 0.1 µg/mL. For the same compound, the Stability in solution entry in “Stability in solution” was “stable in solution”.
In the case of `Nc1ncnc2c1ncn2C[C@H](O)CO` [DHPA, (S)-9-(2.3-dihydroxypropyl) adenine], the “Cytotoxicity in RTG-2 cells” value in the data set on IPNV [5] is reported as “without presenting cytotoxicity”.
As for `C#Cc1c(C(N)=O)ncn1[C@@H]1O[C@H](CO)[C@@H](O)[C@H]1O` [EICAR, 5-ethynyl-1-β-ribofuranosylimidazole-carboxamide], in the data set with IPNV strain VR-299 [6] (Jashés et al., Antiviral Res. 29:309 (1996)), the “EC50 for IPNV” value is 0.01 µg/mL. Also, the “Deaths among experimentally IPNV-infected fry” value in the data set on IPNV [7] (rainbow trout and Coho salmon fry, given first day after infection, Moya et al. (2000)) is given as “fewer deaths occurred among the infected fry”.
In turn, `COc1c(C)c2c(c(O)c1C/C=C(\C)CCC(=O)O)C(=O)OC2` [Myconhenolic Acid, 6-(4-hydroxy-6-methoxy-7-methyl-3-oxo-5-phthalanyl)-4-methyl-4-hexenoic acid] gave a CC50 at 3 days in the data set “in vitro” of over 50 µg/mL. In addition, the EC50 in the data set on IPNV strain VR-299 [8] was 0.5 µg/mL (≈ 1.56 µM).
For `NC(=O)c1ncn([C@@H]2O[C@H](CO)[C@@H](O)[C@H]2O)n1` [Ribavirin], the “Inhibition of IPNV replication in vitro” value with IPNV strain VR-299 [6] (Migus et al. (1980)) is given as “inhibit IPNV replication in vitro; also recorded: efficiently inhibits IPNV replication in vitro”. Further, the “Efficacy against IPNV in vivo” value in the data set on IPNV [7] (Migus et al. (1980), Savan et al. (1980)) was “no efficacy in vivo”.
Take neomycin: the “Effect on IPNV genomic RNA synthesis” value in the data set on IPNV genomic RNA (neomycin 4 mg/ml added 1, 3, 5, 7 h.p.i., harvest 24 h.p.i.) is given as “inhibited the IPNV RNA synthesis”. Further, in the data set with IPNV polypeptides (neomycin 4 mg/ml added 1, 3, 5, 7 h.p.i., 24 h.p.i.), the “Effect on IPNV polypeptide synthesis” value is reported as “does not inhibit IPNV polypeptide synthesis”. Moreover, the “Mortality outbreak, treatment from day thirteen post-infection” value in the data set with IPNV [9] is on record as “stop the mortality outbreak immediately”; in the data set with IPNV [9] (listed as neomycin) it was “stopped dying immediately”.
